Source: patent publication US8962608B2, “Cycloalkylnitrile pyrazole carboxamides as janus kinase inhibitors” (Merck Sharp & Dohme Corp., priority 2011, dated 2015)

Experiments:
[1] = molecular target: JAK1 (recombinant purified GST-tagged catalytic domain) (Homo sapiens (Human), UniProt P23458); experiment: biochemical;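 also: biochemical assay with HTRF read-out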
[2] = molecular target: JAK2 (recombinant purified GST-tagged catalytic domain) (Homo sapiens (Human), UniProt O60674); experiment: biochemical;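 also: biochemical JAK kinase assay with HTRF detection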
Sequence of JAK2 (recombinant purified GST-tagged catalytic domain) (O60674 849-1124): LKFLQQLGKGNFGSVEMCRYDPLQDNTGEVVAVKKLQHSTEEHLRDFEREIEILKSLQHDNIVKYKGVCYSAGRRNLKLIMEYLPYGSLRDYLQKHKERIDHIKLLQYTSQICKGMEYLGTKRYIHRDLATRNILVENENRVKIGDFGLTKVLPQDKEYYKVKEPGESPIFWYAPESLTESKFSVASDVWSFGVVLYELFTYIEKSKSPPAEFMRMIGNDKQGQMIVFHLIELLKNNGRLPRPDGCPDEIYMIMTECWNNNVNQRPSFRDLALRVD

Sequence of JAK1 (recombinant purified GST-tagged catalytic domain) (P23458 875-1153): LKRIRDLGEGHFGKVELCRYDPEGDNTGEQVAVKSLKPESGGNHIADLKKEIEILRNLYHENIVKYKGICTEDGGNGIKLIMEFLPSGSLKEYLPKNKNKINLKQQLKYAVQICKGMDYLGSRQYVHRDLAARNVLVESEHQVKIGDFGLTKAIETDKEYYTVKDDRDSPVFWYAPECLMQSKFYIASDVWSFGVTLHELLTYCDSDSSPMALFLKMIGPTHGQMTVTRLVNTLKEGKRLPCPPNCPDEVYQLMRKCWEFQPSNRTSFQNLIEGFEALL

SMILES	IC50 [1] [nM]	IC50 [2] [nM]
COC1CN(C2CC[C@H](n3cc(C(N)=O)c(Nc4ccc(S(=O)(=O)C(F)(F)F)cc4)n3)[C@@H](C#N)C2)C1 (single isomer, unassigned) [Example 28-147, 1-[(1S,2S or 1R,2R)-2-cyano-4-(3-methoxyazetidin-1-yl)cyclohexyl]-3-({4-[(trifluoro-methyl)sulfonyl]phenyl}amino)-1H-pyrazole-4-carboxamide]	0.45	5
CS(=O)(=O)CCNC1CC[C@H](n2cc(C(N)=O)c(Nc3ccc(S(=O)(=O)C(F)(F)F)cc3)n2)[C@@H](C#N)C1 (single isomer, unassigned) [Example 28-148, 1-[(1S,2S or 1R,2R)-2-cyano-4-{[2-(methylsulfonyl)eth-yl]amino}cyclohexyl]-3-({4-[(trifluoromethyl)sulfon-yl]phenyl}amino)-1H-pyrazole-4-carboxamide]	0.35	4
COCCN(C)[C@H]1CC[C@H](n2cc(C(N)=O)c(Nc3ccc(S(=O)(=O)C(F)(F)F)cc3)n2)[C@@H](C#N)C1 (single isomer, unassigned) [Example 28-149, 1-{(1S,2S,4S or 1R,2R,4R)-2-cyano-4-[(2-methoxy-ethyl)(methyl)amino]cyclohexyl}-3-({4-[(trifluoromethyl)sulfonyl]phen-yl}amino)-1H-pyrazole-4-carboxamide]	0.6	17
N#C[C@H]1CC(NCC2CCS(=O)(=O)C2)CC[C@@H]1n1cc(C(N)=O)c(Nc2ccc(S(=O)(=O)C(F)(F)F)cc2)n1 (single isomer, unassigned) [Example 28-152, 1-[(1S,2S or 1R,2R)-2-cyano-4-{[(1,1-dioxidotetrahydrothiophen-3-yl)methyl]amino}cyclohexyl]-3-({4-[(trifluoro-methyl)sulfonyl]phenyl}amino)-1H-pyrazole-4-carboxamide]	0.4	10
N#C[C@H]1CC(NC2CCS(=O)(=O)C2)CC[C@@H]1n1cc(C(N)=O)c(Nc2ccc(S(=O)(=O)C(F)(F)F)cc2)n1 (single isomer, unassigned) [Example 28-153, 1-{(1S,2S or 1R,2R)-2-cyano-4-[(1,1-dioxidotetrahydrothiophen-3-yl)amino]cyclohexyl}-3-({4-[(trifluoromethyl)sulfonyl]phen-yl}amino)-1H-pyrazole-4-carboxamide]	0.4	7
CN(C)S(=O)(=O)CCNC1CC[C@H](n2cc(C(N)=O)c(Nc3ccc(S(=O)(=O)C(F)(F)F)cc3)n2)[C@@H](C#N)C1 (single isomer, unassigned) [Example 28-154, 1-[(1S,2S or 1R,2R)-2-cyano-4-{[2-(dimethylsulfamoyl)ethyl]a-mino}cyclohexyl]-3-({4-[(trifluoromethyl)sulfonyl]phen-yl}amino)-1H-pyrazole-4-carboxamide]	1	13
N#C[C@H]1CC(N2CC[C@H](F)C2)CC[C@@H]1n1cc(C(N)=O)c(Nc2ccc(S(=O)(=O)C(F)(F)F)cc2)n1 (single isomer, unassigned) [Example 28-158, 1-{(1S,2S or 1R,2R)-2-cyano-4-[(3S)-3-fluoropyrrolidin-1-yl]cyclohexyl}-3-({4-[(trifluoro-methyl)sulfonyl]phenyl}amino)-1H-pyrazole-4-carboxamide]	1	17
N#C[C@H]1CC(N2CC[C@@H](F)C2)CC[C@@H]1n1cc(C(N)=O)c(Nc2ccc(S(=O)(=O)C(F)(F)F)cc2)n1 (single isomer, unassigned) [Example 28-159, 1-{(1S,2S or 1R,2R)-2-cyano-4-[(3R)-3-fluoropyrrolidin-1-yl]cyclohexyl}-3-({4-[(trifluoro-methyl)sulfonyl]phenyl}amino)-1H-pyrazole-4-carboxamide]	2	18
N#C[C@H]1CC(NCC(=O)O)CC[C@@H]1n1cc(C(N)=O)c(Nc2ccc(S(=O)(=O)C(F)(F)F)cc2)n1 (single isomer, unassigned) [Example 28-160, N-{(3S,4S or 3R,4R)-4-[4-carbamoyl-3-({4-[(trifluoro-methyl)sulfonyl]phenyl}amino)-1H-pyrazol-1-yl]-3-cyanocyclohexyl}glycine]	0.2	1
N#C[C@H]1CC(NC(C2CC2)C2CC2)CC[C@@H]1n1cc(C(N)=O)c(Nc2ccc(S(=O)(=O)C(F)(F)F)cc2)n1 (single isomer, unassigned) [Example 28-164, 1-{(1S,2S,4R or 1R,2R,4S)-2-cyano-4-[(dicyclo-propylmethyl)amino]cyclohexyl}-3-({4-[(trifluoro-methyl)sulfonyl]phenyl}amino)-1H-pyrazole-4-carboxamide]	4	225
N#C[C@H]1C[C@@H](NC(C2CC2)C2CC2)CC[C@@H]1n1cc(C(N)=O)c(Nc2ccc(S(=O)(=O)C(F)(F)F)cc2)n1 (single isomer, unassigned) [Example 28-180, 1-{(1S,2S,4S or 1R,2R,4R)-2-cyano-4-[(dicyclopropyl-methyl)amino]cyclohexyl}-3-({4-[(trifluoro-methyl)sulfonyl]phenyl}amino)-1H-pyrazole-4-carboxamide]	0.6	39
N#C[C@H]1CC(N(C2CC2)C2CC2)CC[C@@H]1n1cc(C(N)=O)c(Nc2ccc(S(=O)(=O)C(F)(F)F)cc2)n1 (single isomer, unassigned) [Example 28-181, 1-[(1S,2S or 1R,2R)-2-cyano-4-(dicyclopropylamino)cyclohexyl]-3-({4-[(trifluoro-methyl)sulfonyl]phenyl}amino)-1H-pyrazole-4-carboxamide]	1	16
C[C@H](N[C@@H]1CC[C@H](n2cc(C(N)=O)c(Nc3ccc(C(F)(F)F)cc3)n2)[C@@H](C#N)C1)C1CC1 (single isomer, unassigned) [Example 28-190, 1-[(1S,2S,4R or 1R,2R,4S)-2-cyano-4-{[(1S)-1-cyclopropylethyl]amino}cyclo-hexyl]-3-{[4-(trifluoromethyl)phenyl]amino}-1H-pyrazole-4-carboxamide]	2	270
C[C@H](NC1CC[C@H](n2cc(C(N)=O)c(Nc3ccc(C(F)(F)F)cc3)n2)[C@@H](C#N)C1)C1CC1 (single isomer, unassigned) [Example 28-191, 1-[(1S,2S or 1R,2R)-2-cyano-4-{[(1S)-1-cyclopropylethyl]amino}cyclo-hexyl]-3-{[4-(trifluoromethyl)phenyl]amino}-1H-pyrazole-4-carboxamide]	0.9	104
N#C[C@H]1C[C@@H](N[C@H](C2CC2)C(F)(F)F)CC[C@@H]1n1cc(C(N)=O)c(Nc2ccc(C(F)(F)F)cc2)n1 (single isomer, unassigned) [Example 28-192, 1-[(1S,2S,4S or 1R,2R,4R)-2-cyano-4-{[(1S)-1-cyclopropyl-2,2,2-trifluoroethyl]amino}cyclo-hexyl]-3-{[4-(trifluoromethyl)phenyl]amino}-1H-pyrazole-4-carboxamide]	2	67
N#C[C@H]1C[C@H](N[C@H](C2CC2)C(F)(F)F)CC[C@@H]1n1cc(C(N)=O)c(Nc2ccc(C(F)(F)F)cc2)n1 (single isomer, unassigned) [Example 28-193, 1-[(1S,2S,4R or 1R,2R,4S)-2-cyano-4-{[(1R)-1-cyclopropyl-2,2,2-trifluoroethyl]amino}cyclo-hexyl]-3-{[4-(trifluoromethyl)phenyl]amino}-1H-pyrazole-4-carboxamide]	165	1000
N#C[C@H]1C[C@@H](N[C@@H](C2CC2)C(F)(F)F)CC[C@@H]1n1cc(C(N)=O)c(Nc2ccc(C(F)(F)F)cc2)n1 (single isomer, unassigned) [Example 28-194, 1-[(1S,2S,4S or 1R,2R,4R)-2-cyano-4-{[(1S)-1-cyclopropyl-2,2,2-trifluoroethyl]amino}cyclo-hexyl]-3-{[4-(trifluoromethyl)phenyl]amino}-1H-pyrazole-4-carboxamide]	4	152
N#C[C@H]1C[C@H](N[C@@H](C2CC2)C(F)(F)F)CC[C@@H]1n1cc(C(N)=O)c(Nc2ccc(C(F)(F)F)cc2)n1 (single isomer, unassigned) [Example 28-195, 1-[(1S,2S,4R or 1R,2R,4S)-2-cyano-4-{[(1R)-1-cyclopropyl-2,2,2-trifluoroethyl]amino}cyclo-hexyl]-3-{[4-(trifluoromethyl)phenyl]amino}-1H-pyrazole-4-carboxamide]	177	375
CC1(O)CN([C@H]2CC[C@H](n3cc(C(N)=O)c(Nc4ccc(C(F)(F)F)cc4)n3)[C@@H](C#N)C2)C1 (single isomer, unassigned) [Example 28-198, 1-[(1S,2S,4S or 1R,2R,4R)-2-cyano-4-(3-hydroxy-3-methylazetidin-1-yl)cyclohexyl]-3-{[4-(trifluoromethyl)phenyl]amino}-1H-pyrazole-4-carboxamide]	0.15	3
CC1(O)CN([C@@H]2CC[C@H](n3cc(C(N)=O)c(Nc4ccc(C(F)(F)F)cc4)n3)[C@@H](C#N)C2)C1 (single isomer, unassigned) [Example 28-199, 1-[(1S,2S,4R or 1R,2R,4S)-2-cyano-4-(3-hydroxy-3-methylazetidin-1-yl)cyclohexyl]-3-{[4-(trifluoromethyl)phenyl]amino}-1H-pyrazole-4-carboxamide]	0.3	9
CC(C)(C)N[C@H]1CCC(n2cc(C(N)=O)c(Nc3ccc(C(F)(F)F)cc3)n2)[C@@H](C#N)C1 (single isomer, unassigned) [Example 28-204, 1-[(1S,2S,4S or 1R,2R,4R)-4-(tert-butylamino)-2-cyanocyclohexyl]-3-{[4-(trifluoromethyl)phenyl]amino}-1H-pyrazole-4-carboxamide]	0.2	26
CC(C)(CO)N[C@H]1CCC(n2cc(C(N)=O)c(Nc3ccc(Cl)cc3)n2)[C@@H](C#N)C1 (single isomer, unassigned) [Example 28-210, 3-[(4-chlorophenyl)amino]-1-{(1S,2S,4S or 1R,2R,4R)-2-cyano-4-[(2-hydroxy-1,1-dimethylethyl)amino]cyclo-hexyl}-1H-pyrazole-4-carboxamide]	1	41
